By IC50 is commonly meant the midpoint of a concentration-inhibition curve. What is called Kd is the equilibrium constant for the complex coming apart.

The subject of one experiment is HL-7702. The experiment in a line: cells. The settings on record: Homo sapiens, L02, read-out: IC50 (µM) HL-7702. Further details: anti-proliferative / cytotoxicity assay on cell lines, IC50. The text has this:
(§1) As shown in SPR and ITC data, the binding affinity of OC to Cath B was weaker than that of OC to HSPA8, justifying our selection of HSPA8 for further studies. To evaluate whether OC potentially binds to HSPA8 in cell lysates, we synthesized OC_biotin ([Wang et al., 2016]; Supplementary Figure S8) and performed a pulldown assay using avidin beads. We first examined whether OC_biotin has the same binding affinity with that of OC to HSPA8 using SPR and ITC assays. […] We then examined the anticancer activities of OC_biotin and OC in several cancer cell lines. As shown in Supplementary Table S4, OC_biotin exerted similar anti-proliferative activity to that of OC in multiple cancer cell lines, with IC50 ranging from 5 to 20 µM. […] By using HeLa cells that stably expressed GFP-LC3, we measured the GFP-LC3 puncta increment upon OC, OC_biotin and Hydroxychloroquine (HCQ) treatment. […] Avidin beads were used to perform the OC_biotin immunoprecipitation assay with cell lysates. Consistent with the SPR and ITC assays, we pulled down HSPA8 using cell lysates.

Another experiment relates to PANC-1. Put plainly: cells. On the set-up: anti-proliferative / cytotoxicity assay on cell lines, IC50. The settings on record: Homo sapiens, PANC-1, read-out: IC50 (µM).
From the text: as §1

For the next experiment, the target named is T1, cathepsin B (Cath B) (Homo sapiens, UniProt P07858).
T1 construct: gene CTSB
Put plainly: ITC (KD […]); SPR KD […]; protease activity IC50 […]. Type of experiment: binding.

Experiment [1] addresses T2, heat shock 70 kDa protein 8 (HSPA8) (Homo sapiens, UniProt P11142).
T2 construct: Full-length HSPA8, his-tagged, expressed in E. coli
The experiment in a line: ITC (KD […]); SPR KD […] ([…] also printed); thermal shift lowers Tm by ~[…]°C. Type of experiment: binding.

The subject of the next experiment is A549. Put plainly: cells. On the set-up: anti-proliferative / cytotoxicity assay on cell lines, IC50. The settings on record: Homo sapiens, A549, read-out: IC50 (µM).
From the text: as §1

A further experiment concerns HCT116-DKO. Put plainly: cells. Further details: anti-proliferative / cytotoxicity assay on cell lines, IC50. The settings on record: read-out: IC50 (µM).
From the text: as §1

The next experiment relates to Hela. The experiment in a line: cells. Further details: anti-proliferative / cytotoxicity assay on cell lines, IC50. The settings on record: Homo sapiens, HeLa, read-out: IC50 (µM).
From the text: as §1

The test system of another experiment is MDA-MB-231. Put plainly: cells. Further details: anti-proliferative / cytotoxicity assay on cell lines, IC50. The settings on record: Homo sapiens, MDA-MB-231, read-out: IC50 (µM).
From the text: as §1

For another experiment, the system named is PC-3. Put plainly: cells. Further details: anti-proliferative / cytotoxicity assay on cell lines, IC50. The settings on record: Homo sapiens, PC-3, read-out: IC50 (µM).
From the text: as §1

T2 sequence (P11142 whole entry): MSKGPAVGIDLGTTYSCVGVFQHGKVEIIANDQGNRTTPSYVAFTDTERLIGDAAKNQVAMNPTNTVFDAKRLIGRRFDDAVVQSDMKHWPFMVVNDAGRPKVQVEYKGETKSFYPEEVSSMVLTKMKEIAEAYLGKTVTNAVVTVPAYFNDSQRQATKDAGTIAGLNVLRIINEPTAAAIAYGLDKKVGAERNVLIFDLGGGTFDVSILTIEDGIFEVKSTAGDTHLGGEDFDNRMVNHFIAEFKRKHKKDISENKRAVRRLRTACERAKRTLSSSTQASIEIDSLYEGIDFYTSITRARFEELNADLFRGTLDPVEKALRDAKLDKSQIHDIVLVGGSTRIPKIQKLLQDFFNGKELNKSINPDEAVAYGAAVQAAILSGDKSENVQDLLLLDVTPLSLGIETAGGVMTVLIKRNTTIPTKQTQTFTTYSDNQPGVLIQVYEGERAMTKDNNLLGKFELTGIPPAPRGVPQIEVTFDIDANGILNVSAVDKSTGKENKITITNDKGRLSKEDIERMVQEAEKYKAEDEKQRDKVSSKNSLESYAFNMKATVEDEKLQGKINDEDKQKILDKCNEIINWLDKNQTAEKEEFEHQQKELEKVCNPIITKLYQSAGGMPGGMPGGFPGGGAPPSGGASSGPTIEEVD

Consider `COc1cc([C@@H]2c3cc4c(cc3[C@@H](O[C@@H]3O[C@@H]5CO[C@@H](C)O[C@H]5[C@H](O)[C@H]3O)[C@H]3COC(=O)[C@H]23)OCO4)cc(OC)c1O` [Etoposide], for which the IC50 in the experiment with HL-7702 worked out at 1.42 ± 0.2 µM; with PANC-1, 22.7 ± 1.7 µM.

On to `CC(C)=CCC/C(C)=C/C[C@@H]1C[C@]2(CC=C(C)C)C(=O)[C@@](CC=C(C)C)(C(=O)C(C(=O)c3ccc(O)c(O)c3)=C2O)[C@@]1(C)CCC=C(C)C` [OC, Oblongifolin C], for which the Kd was found to be 25.6 µM on cathepsin B (Cath B) and 6.2 µM in experiment [1]. Also, the IC50 is 7.49 ± 0.9 µM in the experiment with A549; 12.2 ± 0.9 µM with HCT116-DKO; 5.16 ± 0.4 µM in the experiment with HL-7702; 11 ± 1.2 µM in the experiment with Hela; 15.9 ± 1.1 µM in the experiment with MDA-MB-231; 17.5 ± 0.9 µM with PANC-1. The IC50 in the experiment on PC-3 was found to be 10.7 ± 0.6 µM.
